How the values were obtained:
Format in all cases: in vivo
Musca domestica = Musca domestica test; conditions: application rate 100 ppm; adult houseflies; after 2 days
Procedure: Solvent: dimethyl sulphoxide
To produce an appropriate active ingredient formulation, 10 mg of active ingredient are mixed with 0.5 ml of dimethyl sulphoxide, and the concentrate is diluted with water to the desired concentration.
Vessels containing a sponge treated with sugar solution and the active ingredient formulation of the desired concentration are populated with 10 adult houseflies (Musca domestica).
After 2 days, the kill in % is determined. 100% means that all of the flies have been killed; 0% means that none of the flies have been killed.

Ctenocephalides felis [1] = assay: Ctenocephalides felis in vitro contact test with adult cat fleas; conditions: after 48 h, fleas dead or moribund
Procedure: Ctenocephalides felis—In Vitro Contact Tests with Adult Cat Fleas
For the coating of the test tubes, 9 mg of active ingredient are first dissolved in 1 ml of acetone p.a. and then diluted to the desired concentration with acetone p.a. 250 μl of the solution are distributed homogeneously on the inner walls and base of a 25 ml test tube by turning and rocking on an orbital shaker (rocking rotation at 30 rpm for 2 h). With 900 ppm active ingredient solution and internal surface 44.7 cm^2, given homogeneous distribution, an area-based dose of 5 μg/cm^2 is achieved.
After the solvent has evaporated off, the tubes are populated with 5-10 adult cat fleas (Ctenocephalides felis), sealed with a perforated plastic lid and incubated in a horizontal position at room temperature and ambient humidity. After 48 h, efficacy is determined. To this end, the test tubes are stood upright and the fleas are knocked to the base of the tube. Fleas which remain motionless at the base or move in an uncoordinated manner are considered to be dead or moribund.
100% efficacy means that all the fleas were dead or moribund. 0% efficacy means that no fleas were harmed.

Spodoptera frugiperda = Spodoptera frugiperda spray test; conditions: caterpillars, after 7 days
Outline: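 Percent kill of armyworm caterpillars was scored 7 days after they were placed on dried, sprayed Zea mays leaf discs. Spray solutions were made by dissolving active ingredient in solvent and diluting with 1000 ppm emulsifier water.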

Tetranychus urticae = Tetranychus urticae spray test, OP-resistant; conditions: after 6 days
Outline: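 Percent kill is assessed 6 days after spraying infested Phaseolus vulgaris leaf discs, with all mite stages present. Compound is applied as a solvent/emulsifier aqueous formulation at the desired concentration.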

Ctenocephalides felis [2] = assay: Ctenocephalides felis oral test; conditions: application rate 100 ppm in citrated cattle blood; after 2 days
Outline: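 Fleas ingest treated citrated cattle blood (DMSO formulation) through parafilm; percent killed assessed after two days.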

Rhipicephalus sanguineus = Rhipicephalus sanguineus in vitro contact test with adult brown dog ticks; conditions: after 48 h, ticks dead or moribund
Outline: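 Test tubes (25 ml) were coated by dissolving active ingredient in acetone p.a., diluting to the required concentration, and spreading 250 μl over the inner walls and base on an orbital shaker at 30 rpm for 2 h. Once dry, 5-10 adult Rhipicephalus sanguineus were added, and tubes were capped with perforated lids and kept horizontal in darkness at room temperature. At 48 h, ticks were knocked down and heated at 45-50° C. for up to 5 min. Those unable to climb away were counted dead or moribund, and efficacy ran from 0% to 100%.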

Phaedon cochleariae = Phaedon cochleariae spray test; conditions: larvae, after 7 days
Outline: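 Mortality of Phaedon larvae, in %, was read 7 days after release onto sprayed, dried Brassica pekinensis leaf discs. Test dilutions were prepared in water with 1000 ppm emulsifier. A score of 0% means no larvae died and 100% means all were killed.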

Lucilia cuprina = Lucilia cuprina test; conditions: application rate 100 ppm; L1 larvae; after 2 days
Outline: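 Mortality read at 2 days as percent larvae killed (100% = all, 0% = none). Test used roughly 20 first-instar larvae on minced horsemeat dosed with water-diluted DMSO formulation of compound.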

Boophilus microplus = Boophilus microplus injection test; conditions: application rate 20 μg/animal; injection into abdomen; assessed after 7 days
Outline: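 Read-out is % efficacy from fertile egg laying at 7 days: 100% means no tick laid fertile eggs, 0% means all eggs fertile. Each of 5 engorged adult females received 1 μl of DMSO test solution injected abdominally.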

Myzus persicae = Myzus persicae spray test; conditions: after 6 days
Procedure: Myzus persicae—Spray Test
To produce an appropriate active ingredient formulation, 1 part by weight of active ingredient is dissolved using the specified parts by weight of solvent and made up with water containing an emulsifier concentration of 1000 ppm until the desired concentration is attained. To produce further test concentrations, the preparation is diluted with emulsifier-containing water.
Discs of Chinese cabbage leaves (Brassica pekinensis) infested by all stages of the green peach aphid (Myzus persicae) are sprayed with an active ingredient formulation of the desired concentration.
After 6 days, efficacy in % is determined. 100% means that all the aphids have been killed; 0% means that none of the aphids have been killed.

[3] = application rate 5 μg/cm^2 (500 g/ha)
[4] = application rate 1 μg/cm^2 (100 g/ha)

## Cn1nc(C(F)(F)C(F)(F)F)c(C(F)(F)F)c1-n1cc(-c2cnc(F)c(NC(=O)c3ccncc3)c2)cn1 [Example 2-005]
Musca domestica
  efficacy (kill in %): 90%
Ctenocephalides felis [1]; [3]
  efficacy: 100%
Spodoptera frugiperda; application rate 100 g/ha
  efficacy: 100%
Tetranychus urticae; application rate 20 g/ha
  efficacy: 100%
Ctenocephalides felis [2]
  efficacy (kill in %): 100%
Rhipicephalus sanguineus; [4]
  efficacy: 80%
Phaedon cochleariae; application rate 100 g/ha
  efficacy: 100%
Lucilia cuprina
  efficacy (kill in %): 100%
Boophilus microplus
  efficacy (laying of fertile eggs): 100%

## Cn1nc(C(F)(F)C(F)(F)F)c(C(F)(F)F)c1-n1cc(-c2cccc(NC(=O)c3cccc(F)c3)c2)cn1 [Example 1-013]
Musca domestica
  efficacy (kill in %): 90%
Ctenocephalides felis [1]; [3]
  efficacy: 100%
Spodoptera frugiperda; application rate 100 g/ha
  efficacy: 100%
Tetranychus urticae; application rate 100 g/ha
  efficacy: 100%
Ctenocephalides felis [2]
  efficacy (kill in %): 100%
Rhipicephalus sanguineus; [3]
  efficacy: 100%
Phaedon cochleariae; application rate 100 g/ha
  efficacy: 100%
Lucilia cuprina
  efficacy (kill in %): 100%
Boophilus microplus
  efficacy (laying of fertile eggs): 100%

## Cn1nc(C(F)(F)C(F)(F)F)c(C(F)(F)F)c1-n1cc(-c2cccc(NC(=O)c3ccsc3)c2)cn1 [Example 1-016]
Myzus persicae; application rate 500 g/ha
  efficacy: 90%
Ctenocephalides felis [1]; [3]
  efficacy: 100%
Spodoptera frugiperda; application rate 500 g/ha
  efficacy: 100%
Tetranychus urticae; application rate 500 g/ha
  efficacy: 100%
Ctenocephalides felis [2]
  efficacy (kill in %): 100%
Rhipicephalus sanguineus; [3]
  efficacy: 100%
Phaedon cochleariae; application rate 500 g/ha
  efficacy: 100%
Lucilia cuprina
  efficacy (kill in %): 100%
Boophilus microplus
  efficacy (laying of fertile eggs): 100%

## Cn1nc(C(F)(F)C(F)(F)F)c(C(F)(F)F)c1-n1cc(-c2ccc(F)c(NC(=O)C(F)(F)C(F)F)c2)cn1 [Example 1-033]
Myzus persicae; application rate 100 g/ha
  efficacy: 90%
Tetranychus urticae; application rate 100 g/ha
  efficacy: 100%
Ctenocephalides felis [2]
  efficacy (kill in %): 100%
Rhipicephalus sanguineus; [4]
  efficacy: 100%
Phaedon cochleariae; application rate 100 g/ha
  efficacy: 83%
Lucilia cuprina
  efficacy (kill in %): 100%
Boophilus microplus
  efficacy (laying of fertile eggs): 100%

## COCC(=O)Nc1cc(-c2cnn(-c3c(C(F)(F)F)c(C(F)(F)C(F)(F)F)nn3C)c2)ccc1F [Example 1-048]
Myzus persicae; application rate 100 g/ha
  efficacy: 90%
Tetranychus urticae; application rate 100 g/ha
  efficacy: 100%
Ctenocephalides felis [2]
  efficacy (kill in %): 95%
Rhipicephalus sanguineus; [3]
  efficacy: 100%
Lucilia cuprina
  efficacy (kill in %): 95%
Boophilus microplus
  efficacy (laying of fertile eggs): 100%

## Cn1nc(C(F)(F)C(F)(F)F)c(C(F)(F)F)c1-n1cc(-c2ccc(F)c(NC(=O)c3ccncn3)c2)cn1 [Example 1-034]
Musca domestica
  efficacy (kill in %): 100%
Ctenocephalides felis [1]; [3]
  efficacy: 100%
Spodoptera frugiperda; application rate 100 g/ha
  efficacy: 100%
Tetranychus urticae; application rate 100 g/ha
  efficacy: 100%
Ctenocephalides felis [2]
  efficacy (kill in %): 100%
Rhipicephalus sanguineus; [3]
  efficacy: 100%
Phaedon cochleariae; application rate 100 g/ha
  efficacy: 100%
Lucilia cuprina
  efficacy (kill in %): 100%
Boophilus microplus
  efficacy (laying of fertile eggs): 100%

## Cn1nc(C(F)(F)C(F)(F)F)c(C(F)(F)F)c1-n1cc(-c2cccc(NC(=O)c3cccnc3Cl)c2)cn1 [Example 1-028]
Musca domestica
  efficacy (kill in %): 100%
Ctenocephalides felis [1]; [3]
  efficacy: 100%
Spodoptera frugiperda; application rate 100 g/ha
  efficacy: 100%
Tetranychus urticae; application rate 100 g/ha
  efficacy: 100%
Ctenocephalides felis [2]
  efficacy (kill in %): 100%
Rhipicephalus sanguineus; [3]
  efficacy: 100%
Phaedon cochleariae; application rate 100 g/ha
  efficacy: 100%
Lucilia cuprina
  efficacy (kill in %): 100%
Boophilus microplus
  efficacy (laying of fertile eggs): 100%

## Cn1nc(C(F)(F)C(F)(F)F)c(C(F)(F)F)c1-n1cc(-c2ccc(F)c(NC(=O)C3(C)CC3)c2)cn1 [Example 1-058]
Musca domestica
  efficacy (kill in %): 80%
Ctenocephalides felis [1]; [3]
  efficacy: 100%
Spodoptera frugiperda; application rate 100 g/ha
  efficacy: 83%
Tetranychus urticae; application rate 100 g/ha
  efficacy: 100%
Ctenocephalides felis [2]
  efficacy (kill in %): 100%
Rhipicephalus sanguineus; [3]
  efficacy: 100%
Lucilia cuprina
  efficacy (kill in %): 100%
Boophilus microplus
  efficacy (laying of fertile eggs): 100%

## Cn1nc(C(F)(F)C(F)(F)F)c(C(F)(F)F)c1-n1cc(-c2ccc(F)c(NC(=O)c3ccc(Cl)c(F)c3)c2)cn1 [Example 1-096]
Musca domestica
  efficacy (kill in %): 90%
Ctenocephalides felis [1]; [3]
  efficacy: 100%
Spodoptera frugiperda; application rate 100 g/ha
  efficacy: 100%
Tetranychus urticae; application rate 100 g/ha
  efficacy: 100%
Ctenocephalides felis [2]
  efficacy (kill in %): 100%
Rhipicephalus sanguineus; [3]
  efficacy: 100%
Phaedon cochleariae; application rate 100 g/ha
  efficacy: 100%
Lucilia cuprina
  efficacy (kill in %): 100%
Boophilus microplus
  efficacy (laying of fertile eggs): 100%

## Cn1nc(C(F)(F)C(F)(F)F)c(C(F)(F)F)c1-n1cc(-c2cccc(NC(=O)c3ccccc3F)c2)cn1 [Example 1-012]
Myzus persicae; application rate 100 g/ha
  efficacy: 90%
Ctenocephalides felis [1]; [3]
  efficacy: 100%
Spodoptera frugiperda; application rate 100 g/ha
  efficacy: 100%
Tetranychus urticae; application rate 100 g/ha
  efficacy: 100%
Ctenocephalides felis [2]
  efficacy (kill in %): 100%
Rhipicephalus sanguineus; [3]
  efficacy: 100%
Phaedon cochleariae; application rate 100 g/ha
  efficacy: 100%
Lucilia cuprina
  efficacy (kill in %): 100%
Boophilus microplus
  efficacy (laying of fertile eggs): 100%

## Cn1nc(C(F)(F)C(F)(F)F)c(C(F)(F)F)c1-n1cc(-c2cccc(NC(=O)c3cc(F)cc(F)c3)c2)cn1 [Example 1-014]
Musca domestica
  efficacy (kill in %): 90%
Ctenocephalides felis [1]; [4]
  efficacy: 80%
Spodoptera frugiperda; application rate 100 g/ha
  efficacy: 100%
Tetranychus urticae; application rate 100 g/ha
  efficacy: 90%
Ctenocephalides felis [2]
  efficacy (kill in %): 100%
Rhipicephalus sanguineus; [3]
  efficacy: 100%
Phaedon cochleariae; application rate 100 g/ha
  efficacy: 100%
Lucilia cuprina
  efficacy (kill in %): 100%
Boophilus microplus
  efficacy (laying of fertile eggs): 100%

## CN(C)C(=O)C(=O)Nc1cc(-c2cnn(-c3c(C(F)(F)F)c(C(F)(F)C(F)(F)F)nn3C)c2)ccc1F [Example 1-127]
Musca domestica
  efficacy (kill in %): 100%
Ctenocephalides felis [1]; [3]
  efficacy: 100%
Spodoptera frugiperda; application rate 100 g/ha
  efficacy: 100%
Ctenocephalides felis [2]
  efficacy (kill in %): 100%
Rhipicephalus sanguineus; [3]
  efficacy: 100%
Phaedon cochleariae; application rate 100 g/ha
  efficacy: 100%
Lucilia cuprina
  efficacy (kill in %): 100%
Boophilus microplus
  efficacy (laying of fertile eggs): 100%

## Cn1nc(C(F)(F)C(F)(F)F)c(C(F)(F)F)c1-n1cc(-c2cnc(Cl)c(NC(=O)c3ccncc3)c2)cn1 [Example 2-006]
Musca domestica
  efficacy (kill in %): 90%
Ctenocephalides felis [1]; [3]
  efficacy: 100%
Spodoptera frugiperda; application rate 100 g/ha
  efficacy: 100%
Tetranychus urticae; application rate 100 g/ha
  efficacy: 100%
Ctenocephalides felis [2]
  efficacy (kill in %): 100%
Rhipicephalus sanguineus; [3]
  efficacy: 80%
Phaedon cochleariae; application rate 100 g/ha
  efficacy: 100%
Lucilia cuprina
  efficacy (kill in %): 100%
Boophilus microplus
  efficacy (laying of fertile eggs): 100%

## Cn1nc(C(F)(F)C(F)(F)F)c(C(F)(F)F)c1-n1cc(-c2cccc(NC(=O)c3cccs3)c2)cn1 [Example 1-017]
Myzus persicae; application rate 100 g/ha
  efficacy: 90%
Spodoptera frugiperda; application rate 100 g/ha
  efficacy: 100%
Tetranychus urticae; application rate 100 g/ha
  efficacy: 100%
Ctenocephalides felis [2]
  efficacy (kill in %): 100%
Rhipicephalus sanguineus; [3]
  efficacy: 100%
Phaedon cochleariae; application rate 100 g/ha
  efficacy: 100%
Lucilia cuprina
  efficacy (kill in %): 100%
Boophilus microplus
  efficacy (laying of fertile eggs): 100%

## Cn1nc(C(F)(F)C(F)(F)F)c(C(F)(F)F)c1-n1cc(-c2cccc(NC(=O)C(F)(F)C(F)F)c2)cn1 [Example 1-009]
Myzus persicae; application rate 100 g/ha
  efficacy: 100%
Spodoptera frugiperda; application rate 500 g/ha
  efficacy: 100%
Tetranychus urticae; application rate 500 g/ha
  efficacy: 100%
Ctenocephalides felis [2]
  efficacy (kill in %): 100%
Rhipicephalus sanguineus; [3]
  efficacy: 100%
Phaedon cochleariae; application rate 500 g/ha
  efficacy: 100%
Lucilia cuprina
  efficacy (kill in %): 100%
Boophilus microplus
  efficacy (laying of fertile eggs): 100%

## Cn1cc(C(=O)Nc2cc(-c3cnn(-c4c(C(F)(F)F)c(C(F)(F)C(F)(F)F)nn4C)c3)ccc2F)cn1 [Example 1-035]
Musca domestica
  efficacy (kill in %): 100%
Spodoptera frugiperda; application rate 100 g/ha
  efficacy: 100%
Tetranychus urticae; application rate 100 g/ha
  efficacy: 100%
Ctenocephalides felis [2]
  efficacy (kill in %): 100%
Rhipicephalus sanguineus; [3]
  efficacy: 80%
Phaedon cochleariae; application rate 100 g/ha
  efficacy: 100%
Lucilia cuprina
  efficacy (kill in %): 100%
Boophilus microplus
  efficacy (laying of fertile eggs): 100%
